Source: ChEMBL document CHEMBL5131523, “Long-Awaited Small-Molecule Drug Candidate for Drugging the Next Undruggable KRASG12D Mutant in Cancer Therapy” (ACS Med Chem Lett, 2022)

Test system: BaF3
Assay: Antiproliferative activity against mouse BaF3 cells harboring KRAS G12D mutant assessed as inhibition of cell proliferation incubated for 3 days by CellTiter-Glo assay
Type: toxicity, cell-based
Settings: BaF3, 72 h

| SMILES | IC50 [nM] |
| --- | --- |
| Oc1cc(-c2nc(Cl)c3c(N4C[C@H]5CC[C@@H](C4)N5)nc(OC[C@@]45CCCN4C[C@H](F)C5)nc3c2F)c2ccccc2c1 | ≤ 500 |
| C#Cc1c(F)ccc2cc(O)cc(-c3nc(OC(C)C)c4c(N5C[C@H]6CC[C@@H](C5)N6)nc(C(F)F)nc4c3F)c12 | ≤ 500 |
| C#Cc1c(F)ccc2cc(O)cc(-c3nc(OC(C)C)c4c(N5C[C@H]6CC[C@@H](C5)N6)nc(OC[C@@]56CCCN5C[C@H](F)C6)nc4c3F)c12 | ≤ 500 |
| C#Cc1c(F)ccc2cc(O)cc(-c3nc(OCC)c4c(N5CCNC6(CCC6)C5)nc(OC[C@@]56CCCN5C[C@H](F)C6)nc4c3F)c12 | ≤ 500 |
| Oc1cc(-c2nc(O)c3c(N4C[C@H]5CC[C@@H](C4)N5)nc(OC[C@@]45CCCN4C[C@H](F)C5)nc3c2F)c2c(Cl)c(F)ccc2c1 | 500 |
| C#Cc1c(F)ccc2cc(O)cc(-c3nc(OCC(F)F)c4c(N5C[C@H]6CC[C@@H](C5)N6)nc(OC[C@@]56CCCN5C[C@H](F)C6)nc4c3F)c12 | ≤ 500 |
| C#Cc1c(F)ccc2cc(O)cc(-c3nc(OC(C)C)c4c(N5C[C@H]6CC[C@@H](C5)N6)nc(NC)nc4c3F)c12 | 500 |
| CCOc1nc(-c2cc(O)cc3ccc(F)c(Cl)c23)c(F)c2nc(OC[C@@]34CCCN3C[C@H](F)C4)nc(N3C[C@H]4CC[C@@H](C3)N4)c12 | ≤ 500 |
| Cc1nc(-c2cc(O)cc3cccc(Cl)c23)c(F)c2nc(OC[C@@]34CCCN3C[C@H](F)C4)nc(N3C[C@H]4CC[C@@H](C3)N4)c12 | ≤ 500 |
| Fc1c(-c2cccc3cccc(Cl)c23)ncc2c(N3C[C@H]4CC[C@@H](C3)N4)nc(OCC34CCCN3CCC4)nc12 | ≤ 500 |
| Cc1cccc2cc(O)cc(-c3nc(C)c4c(N5C[C@H]6CC[C@@H](C5)N6)nc(OC[C@@]56CCCN5C[C@H](F)C6)nc4c3F)c12 | ≤ 500 |
| C#Cc1c(F)ccc2cc(O)cc(-c3nc(OC(F)F)c4c(N5C[C@H]6CC[C@@H](C5)N6)nc(OC[C@@]56CCCN5C[C@H](F)C6)nc4c3F)c12 | ≤ 500 |
